Results reported in patent US20130287688A1, “NOVEL COMPOSITIONS AND USES OF ANTI-HYPERTENSION AGENTS FOR CANCER THERAPY” (XTUIT PHARMACEUTICALS, INC., priority 2010, published 2013).

System: E0771 breast tumors
Test: Tumor matrix level histology (collagen I)
Set-up: species or system SCID mouse
Settings: mouse, in vivo
Method: Collagen levels were used as a metric of matrix production as described in Diop-Frimpong et al., Proc Nall Acad Sci USA. […] Next, solid stress in these tumors was measured using recently established technique described in Stylianopoulos T, et al., Growth-induced mechanical stress in murine and human tumors: causes, consequences and remedies. under review.
Vessel perfusion, matrix level, and hypoxia histology: For breast tumors, mice bearing orthotopic E0771 were split into treatment groups, time-matched for time after implantation and size-matched for tumor volume at this time (−100 mm^3). For pancreatic tumors, mice bearing orthotopic AK4.4 were split into treatment groups, size-matched for tumor volume (˜22 mm^3), 6 days after implantation. […] On the day of the last treatment, mice were slowly (−2 min) injected with 100 μL of 1 mg/mL biotinylated lectin (Vector Labs), administered retro-orbitally 5 min prior to tumor removal. For hypoxia studies, the mice were also injected with 60 mg/kg of 10 mg/mL pimonidazole 1 hr prior to tumor removal. […] For matrix staining, collagen I was detected using the LF-67 antibody provided by Dr. Larry Fisher (National Institute of Dental Research, Bethesda, Md.).
Histological image analysis: Eight random images (four interior, four periphery) at 20× magnification were taken from each slide using a confocal microscope (Olympus). […] For perfusion, the number of vessels counted by this program with colocalization of lectin and CD31 staining was divided by the number of vessels counted with CD31 staining. For vessel metrics, including diameter and density, the program determined the average size of all counted vessels and their length, as well as the count per area Images of collagen I stained sections were analyzed based on the area fraction of positive staining and on the average staining intensity (concentration) in each image. […] Images of hypoxia staining with pimonidazole were similarly analyzed for the area fraction of positive staining, counting the fraction of pixels above a threshold based on background intensity.

In the case of `CCCCc1nc(Cl)c(CO)n1Cc1ccc(-c2ccccc2-c2nn[nH]n2)cc1` [losartan], the “concentration of collagen I (staining intensity)” value is reported as “reduces” and the “matrix production, collagen I area fraction” value is reported as “decreases”.
